Patent US9695155B2, “Herbicidal substituted pyrimidinyloxy benzene compounds” (E. I. DU PONT DE NEMOURS AND COMPANY, priority 2013, dated 2017)

Experiments:
arrowleaf sida = test: Test E preemergence; assay type: in vivo, Sida rhombifolia; conditions: for Arrowleaf Sida plant response rating: scale 0 to 100 (0 no effect, 100 complete control); for Plant response rating, Arrowleaf Sida: scale 0 to 100, 0 no effect, 100 complete control
Outline: (§1)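 Test chemicals formulated in a non-phytotoxic solvent mixture containing a surfactant were applied preemergence to seeds in silt loam soil or postemergence to plants at the 1- to 4-leaf stage in potting mix. After 14 to 21 days in a greenhouse, injury was visually rated against controls on a 0-100 scale (0 = no effect, 100 = complete control).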

soybean = test: Test E preemergence; assay type: in vivo, Glycine max; conditions: for Soybean plant response rating: scale 0 to 100 (0 no effect, 100 complete control); for Plant response rating, Soybean: scale 0 to 100, 0 no effect, 100 complete control
Outline: as §1

corn [1] = test: Test E preemergence; assay type: in vivo, Zea mays; conditions: for Corn plant response rating: scale 0 to 100 (0 no effect, 100 complete control); for Plant response rating, Corn: scale 0 to 100, 0 no effect, 100 complete control
Outline: as §1

palmer pigweed [2] = test: Test E preemergence; assay type: in vivo, Amaranthus palmeri; conditions: for Pigweed, Palmer plant response rating: scale 0 to 100 (0 no effect, 100 complete control); for Plant response rating, Pigweed, Palmer: scale 0 to 100, 0 no effect, 100 complete control
Outline: as §1

Italian ryegrass = test: Test E postemergence; assay type: in vivo, Lolium multiflorum; conditions: Postemergence, scale 0 to 100
Outline: as §1

green foxtail = test: Test E preemergence; assay type: in vivo, Setaria viridis; conditions: for Foxtail, Green plant response rating: scale 0 to 100 (0 no effect, 100 complete control); for Plant response rating, Foxtail, Green: scale 0 to 100, 0 no effect, 100 complete control
Outline: as §1

morningglory = test: Test E preemergence; assay type: in vivo, Ipomoea coccinea; conditions: for Morningglory plant response rating: scale 0 to 100 (0 no effect, 100 complete control); for Plant response rating, Morningglory: scale 0 to 100, 0 no effect, 100 complete control
Outline: as §1

giant foxtail = test: Test E preemergence; assay type: in vivo, Setaria faberii; conditions: for Foxtail, Giant plant response rating: scale 0 to 100 (0 no effect, 100 complete control); for Plant response rating, Foxtail, Giant: scale 0 to 100, 0 no effect, 100 complete control
Outline: as §1

Brazilian crabgrass = test: Test E postemergence; assay type: in vivo, Digitaria horizontalis; conditions: Postemergence, scale 0 to 100
Outline: as §1

field bindweed = test: Test E preemergence; assay type: in vivo, Convolvulus arvensis; conditions: for Field Bindweed plant response rating: scale 0 to 100 (0 no effect, 100 complete control); for Plant response rating, Field Bindweed: scale 0 to 100, 0 no effect, 100 complete control
Outline: as §1

barnyardgrass = test: Test E postemergence; assay type: in vivo, Echinochloa crus-galli; conditions: Postemergence, scale 0 to 100
Outline: as §1

goosegrass = test: Test E preemergence; assay type: in vivo, Eleusine indica; conditions: for Goosegrass plant response rating: scale 0 to 100 (0 no effect, 100 complete control); for Plant response rating, Goosegrass: scale 0 to 100, 0 no effect, 100 complete control
Outline: as §1

velvetleaf = test: Test E preemergence; assay type: in vivo, Abutilon theophrasti; conditions: for Velvetleaf plant response rating: scale 0 to 100 (0 no effect, 100 complete control); for Plant response rating, Velvetleaf: scale 0 to 100, 0 no effect, 100 complete control
Outline: as §1

surinam grass = test: Test E preemergence; assay type: in vivo, Brachiaria decumbens; conditions: for Surinam Grass plant response rating: scale 0 to 100 (0 no effect, 100 complete control); for Plant response rating, Surinam Grass: scale 0 to 100, 0 no effect, 100 complete control
Outline: as §1

palmer pigweed [3] = test: Test E postemergence; assay type: in vivo, Amaranthus palmeri; conditions: Postemergence, scale 0 to 100
Outline: as §1

corn [4] = test: Test E postemergence; assay type: in vivo, Zea mays; conditions: Postemergence, scale 0 to 100
Outline: as §1

With `N#Cc1cccc(Oc2ncc(Cl)cn2)c1-n1cc(Cl)cn1` [Compound 72] the “Arrowleaf Sida plant response rating” value (arrowleaf sida; 16 g ai/ha, preemergence) was 20, the “Arrowleaf Sida plant response rating” value (arrowleaf sida; 31 g ai/ha, preemergence) was 40 and the “Plant response rating, Arrowleaf Sida” value (arrowleaf sida; Preemergence, 62 g ai/ha) was 40. For the same molecule, the “Plant response rating, Arrowleaf Sida” value (arrowleaf sida; preemergence, 125 g ai/ha) was 100, the “Plant response rating, Arrowleaf Sida” value (arrowleaf sida; preemergence, 250 g ai/ha) was 100 and the “Soybean plant response rating” value (soybean; 16 g ai/ha) was 0. For the same molecule, the “Soybean plant response rating” value (soybean; 31 g ai/ha) was 10, the “Soybean plant response rating” value (soybean; 62 g ai/ha) was 25 and the “Plant response rating, Soybean” value (soybean; 125 g ai/ha) was 70. The “Plant response rating, Soybean” value (soybean; 250 g ai/ha) was 90, the “Corn plant response rating” value (corn [1]; 16 g ai/ha) was 0 and the “Corn plant response rating” value (corn [1]; 31 g ai/ha) was 0. The “Corn plant response rating” value (corn [1]; 62 g ai/ha) was 0, the “Plant response rating, Corn” value (corn [1]; 125 g ai/ha) was 0 and the “Plant response rating, Corn” value (corn [1]; 250 g ai/ha) was 0. The “Pigweed, Palmer plant response rating” value (palmer pigweed [2]; 16 g ai/ha) was 95, the “Pigweed, Palmer plant response rating” value (palmer pigweed [2]; 31 g ai/ha) was 100 and the “Pigweed, Palmer plant response rating” value (palmer pigweed [2]; 62 g ai/ha) was 100. The “Plant response rating, Pigweed, Palmer” value (palmer pigweed [2]; 125 g ai/ha) was 100, the “Plant response rating, Pigweed, Palmer” value (palmer pigweed [2]; 250 g ai/ha) was 100 and the “Plant response rating, Ryegrass, Italian” value (Italian ryegrass; 62 g ai/ha) was 0. The “Plant response rating, Ryegrass, Italian” value (Italian ryegrass; 125 g ai/ha) was 5, the “Foxtail, Green plant response rating” value (green foxtail; 16 g ai/ha) was 30 and the “Foxtail, Green plant response rating” value (green foxtail; 31 g ai/ha) was 30. For the same molecule, the “Foxtail, Green plant response rating” value (green foxtail; 62 g ai/ha) was 95, the “Plant response rating, Foxtail, Green” value (green foxtail; 125 g ai/ha) was 100 and the “Plant response rating, Foxtail, Green” value (green foxtail; 250 g ai/ha) was 100. For the same molecule, the “Morningglory plant response rating” value (morningglory; 16 g ai/ha) was 0, the “Morningglory plant response rating” value (morningglory; 31 g ai/ha) was 0 and the “Morningglory plant response rating” value (morningglory; 62 g ai/ha) was 15. The “Plant response rating, Morningglory” value (morningglory; 125 g ai/ha) was 15, the “Plant response rating, Morningglory” value (morningglory; 250 g ai/ha) was 35 and the “Foxtail, Giant plant response rating” value (giant foxtail; 16 g ai/ha) was 35. For the same molecule, the “Foxtail, Giant plant response rating” value (giant foxtail; 31 g ai/ha) was 35, the “Foxtail, Giant plant response rating” value (giant foxtail; 62 g ai/ha) was 95 and the “Plant response rating, Foxtail, Giant” value (giant foxtail; 125 g ai/ha) was 98. For the same molecule, the “Plant response rating, Foxtail, Giant” value (giant foxtail; 250 g ai/ha) was 100, the “Plant response rating, Crabgrass, Brazil” value (Brazilian crabgrass; 62 g ai/ha) was 10 and the “Plant response rating, Crabgrass, Brazil” value (Brazilian crabgrass; 125 g ai/ha) was 20. The “Field Bindweed plant response rating” value (field bindweed; 16 g ai/ha) was 0, the “Field Bindweed plant response rating” value (field bindweed; 31 g ai/ha) was 5 and the “Field Bindweed plant response rating” value (field bindweed; 62 g ai/ha) was 10. The “Plant response rating, Field Bindweed” value (field bindweed; 125 g ai/ha) was 60, the “Plant response rating, Field Bindweed” value (field bindweed; 250 g ai/ha) was 95 and the “Plant response rating, Barnyardgrass” value (barnyardgrass; 62 g ai/ha) was 0. The “Plant response rating, Barnyardgrass” value (barnyardgrass; 125 g ai/ha) was 10, the “Goosegrass plant response rating” value (goosegrass; 16 g ai/ha) was 0 and the “Goosegrass plant response rating” value (goosegrass; 31 g ai/ha) was 60. For the same molecule, the “Goosegrass plant response rating” value (goosegrass; 62 g ai/ha) was 80, the “Plant response rating, Goosegrass” value (goosegrass; 125 g ai/ha) was 98 and the “Plant response rating, Goosegrass” value (goosegrass; 250 g ai/ha) was 100. The “Velvetleaf plant response rating” value (velvetleaf; 16 g ai/ha) was 0, the “Velvetleaf plant response rating” value (velvetleaf; 31 g ai/ha) was 0 and the “Velvetleaf plant response rating” value (velvetleaf; 62 g ai/ha) was 40. For the same molecule, the “Plant response rating, Velvetleaf” value (velvetleaf; 125 g ai/ha) was 65, the “Plant response rating, Velvetleaf” value (velvetleaf; 250 g ai/ha) was 100 and the “Surinam Grass plant response rating” value (surinam grass; 16 g ai/ha) was 20. The “Surinam Grass plant response rating” value (surinam grass; 31 g ai/ha) was 20, the “Surinam Grass plant response rating” value (surinam grass; 62 g ai/ha) was 20 and the “Plant response rating, Surinam Grass” value (surinam grass; 125 g ai/ha) was 10. For the same molecule, the “Plant response rating, Surinam Grass” value (surinam grass; 250 g ai/ha) was 30, the “Plant response rating, Pigweed, Palmer” value (palmer pigweed [3]; 62 g ai/ha) was 75 and the “Plant response rating, Pigweed, Palmer” value (palmer pigweed [3]; 125 g ai/ha) was 90. For the same molecule, the “Plant response rating, Corn” value (corn [4]; 62 g ai/ha) was 15 and the “Plant response rating, Corn” value (corn [4]; 125 g ai/ha) was 10.
